Experimental data from patent US5574070A, “Substituted guanidines having high binding to the sigma receptor and the use thereof” (priority 1993, dated 1996).
Like-named read-outs stand apart in the source and are kept apart here.

Legend:
[1] = target: sigma receptor; test: [3H]DTG displacement radioligand binding assay, guinea pig brain membranes; conditions: for displacement of [3H]DTG: 10 uM
[2] = target: [3H]MK-801; test: [3H]MK-801 displacement binding; conditions: read-out: IC50 vs [3H]MK-801; Table II; ± s.e.m. (n)
[3] = system: anxiety behavior of mice; test: black:white test box (light/dark exploration) of mice
[4] = target: T1, sigma receptor from guinea pig brain (Cavia porcellus, UniProt Q60492); test: [3H]AZ-DTG binding and photoaffinity labeling of the sigma receptor; conditions: 10 uM
T1 construct: from tissue; host or cells: guinea pig brain membranes
Protocol: The filters were then irradiated with long-wavelength UV light for a 15 minute period. Filter-bound proteins were solubilized with 50 mM Tris pH 7.4, 0.1% sodium dodecyl sulfate. Solubilized proteins were subjected to SDS-polyacrylamide gel electrophoresis.

[5] = list of especially preferred compounds, read-out: IC50 (high binding to the sigma receptor)
[6] = read-out: IC50 vs [3H]DTG, Table II, ± s.e.m. (n)
[7] = Example 25, guinea pig brain membrane homogenates, read-out: IC50 binding values
[8] = read-out: IC50 vs [3H]DTG, Table I, guinea pig brain membranes

T1 sequence (Q60492 whole entry): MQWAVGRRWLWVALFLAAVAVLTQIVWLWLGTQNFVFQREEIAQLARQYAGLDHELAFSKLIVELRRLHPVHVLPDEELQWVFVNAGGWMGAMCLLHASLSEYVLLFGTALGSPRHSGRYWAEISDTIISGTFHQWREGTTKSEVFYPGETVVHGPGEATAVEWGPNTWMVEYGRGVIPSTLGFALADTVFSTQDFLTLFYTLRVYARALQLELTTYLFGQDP

N=C(Nc1ccccc1I)Nc1cccc2ccccc12 [N-(1-Naphthyl)-N'-(2-iodophenyl)-guanidine]
IC50 [1, 5]: 40.1 nM | IC50 [1, 6]: 40.1 nM | IC50 [2]: 209 nM

CC12CC3CC(C)(C1)CC(/N=C(\N)Nc1ccccc1/C=C/c1ccccc1)(C3)C2 [Example F-114-B, N-(3,5-dimethyladamantan-1-yl)-N'-[(E)-2-phenylethenyl]phenylguanidine]
sedation: total numbers of rears and line crossings ([3]; s.c.): did not decrease significantly showing that the drug was not sedative at this level

N=C(Nc1ccccc1I)N[C@@H]1C[C@@H]2CC[C@H]1C2 (relative stereo) [N-((±)-endo-2-norbornyl)-N'-(2-iodophenyl)guanidine]
IC50 [1, 5]: 5 nM | latency to entering the dark compartment ([3]; oral): increase in the latency to entering the dark compartment | numbers of line crossings and/or rears in the light compartment (vs dark) ([3]; oral): increase in the number of rears in the light compartment | proportion of time in light area / percentage of time in black compartment ([3]; oral): decrease in the percentage time spent in the black compartment | sedation: total numbers of rears and line crossings ([3]; oral): did not decrease significantly, showing that the drug was not sedative | latency to entering the dark compartment ([3]; s.c.): dose-dependent increase in the latency to entering the dark compartment | numbers of line crossings and/or rears in the light compartment (vs dark) ([3]; s.c.): significant dose-dependent increase in the number of rears in the light compartment | sedation: total numbers of rears and line crossings ([3]; s.c.): did not decrease significantly, showing that the drug was not sedative

Cc1ccccc1NC(=N)NC1CCCCC1 [N-Cyclohexyl-N'-(2-methylphenyl)guanidine]
in vitro [3H]DTG displacement activity [1]: found to possess the aforesaid in vitro [^3 H]DTG displacement activity | IC50 [1, 7]: 13 ± 1 nM | IC50 [1, 5]: 13 nM | IC50 [1, 8]: 17 ± 5 nM | latency to entering the dark compartment ([3]; oral): slight increase in the latency to entering the dark compartment | numbers of line crossings and/or rears in the light compartment (vs dark) ([3]; oral): increase in the total numbers of rears in the light compartment | proportion of time in light area / percentage of time in black compartment ([3]; oral): significant decrease in the percentage of time in the black compartment | sedation: total numbers of rears and line crossings ([3]; oral): did not change significantly, showing that the compound was not sedative | latency to entering the dark compartment ([3]; s.c.): increase in the latency to entering the dark compartment | numbers of line crossings and/or rears in the light compartment (vs dark) ([3]; s.c.): increased in a dose-dependent manner at the expense of those in the dark compartment | proportion of time spent in the lighted area ([3]; s.c.): increases significantly the proportion of time the mice spent in the larger, lighted area | sedation: total numbers of rears and line crossings ([3]; s.c.): did not decrease significantly, showing that the drug was not sedative

Cc1cc(Br)ccc1NC(=N)NC1CCCCC1 [N-Cyclohexyl-N'-(2-methyl-4-bromophenyl)guanidine]
in vitro [3H]DTG displacement activity [1]: found to possess the aforesaid in vitro [^3 H]DTG displacement activity | IC50 [1, 7]: 5.5 nM | IC50 [1, 5]: 5.5 nM | IC50 [1, 6]: 4.67 nM | IC50 [2]: 23900 nM

N=C(Nc1ccc(F)cc1C(F)(F)F)NC12CC3CC(CC(C3)C1)C2 [N-(Adamantan-1-yl)-N'-(2-trifluoromethyl-4-fluorophenyl)guanidine]
IC50 [1, 5]: 4 nM | IC50 [1, 6]: 4.27 nM | IC50 [2]: 31900 nM

NCCCC(=O)O [GABA, γ-aminobutyric acid, reference compound]
displacement of [3H]DTG [1]: no significant displacement | effect on [3H]AZ-DTG labeling of the 29 kD polypeptide [4]: unaffected

Cc1ccccc1N(C)C(=N)NC12CC3CC(CC(C3)C1)C2 [N-(Adamantan-1-yl)-N'-(2-methylphenyl)-N'-methyl-guanidine]
IC50 [1, 5]: 22.6 nM | IC50 [1, 6]: 22.6 nM

picrotoxin [reference compound]
displacement of [3H]DTG [1]: no significant displacement

Clc1cccc(Cl)c1N=C1NCCN1 [Clonidine, reference compound]
IC50 ([1]; read-out: IC50 vs. [3H]DTG): > 10000 nM

N=C(NC1CC2CCC1C2)NC1CC2CCC1C2 (stereo not drawn) [N,N'-di-(exo-2-norbornyl)guanidine]
in vitro [3H]DTG displacement activity [1]: found to possess the aforesaid in vitro [^3 H]DTG displacement activity | IC50 [1, 7]: 22 nM | IC50 [1, 5]: 22 nM

Cl.N=C(Nc1ccccc1I)NC12CC3CC(CC(C3)C1)C2 [AdIpG, N-(Adamantan-1-yl)-N'-(2-iodophenyl)guanidine HCl]
in vitro [3H]DTG displacement activity [1]: found to possess the aforesaid in vitro [^3 H]DTG displacement activity | IC50 [1, 7]: 6.2 ± 0.7 nM | IC50 [1, 5]: 6.2 nM | IC50 [1, 8]: 5 ± 1 nM | latency to entering the dark compartment ([3]; oral): increase in the latency to entering the dark compartment | numbers of line crossings and/or rears in the light compartment (vs dark) ([3]; oral): increase in the numbers of line crossings and rears in the light compartment | sedation: total numbers of rears and line crossings ([3]; oral): did not decrease significantly | anxiolytic activity ([3]; oral, 1 mg/kg): have anxiolytic activity when orally administered | latency to entering the dark compartment ([3]; s.c.): increased in a dose-dependent manner | numbers of line crossings and/or rears in the light compartment (vs dark) ([3]; s.c.): increased at the expense of those in the dark compartment | proportion of time spent in the lighted area ([3]; s.c.): increased, in a dose-dependent manner, the proportion of time the mice spent in the larger, lighted area | sedation: total numbers of rears and line crossings ([3]; s.c.): did not decrease significantly showing that the drug was not sedative at this level
